Results on 1 compound are retold here after patent US6515140B2, “Fused pyrrolecarboxamides; a new class of GABA brain receptor ligands” (Neurogen Corporation, priority 1996, dated 2003).

The target in one data set is GABAa receptor. Description: GABAa receptor binding assay (3H-RO15-1788 displacement). To be noted: rat cortical tissue homogenate; radioligand 0.5 nM 3H-RO15-1788 [3H-Flumazenil]; 30 min at 4° C. How it is done: The pharmaceutical utility of compounds of this invention are indicated by the following assay for GABAa receptor binding activity.
Assays are carried out as described in Thomas and Tallman (J. Bio. Chem. 156:9838-9842 , J. Neurosci. 3:433-440, 1983). Rat cortical tissue is dissected and homogenized in 25 volumes (w/v) of 0.05 M Tris HCl buffer (pH 7.4 at 4° C.). The tissue homogenate is centrifuged in the cold (4°) at 20,000×g for 20′. The supernatant is decanted and the pellet is rehomogenized in the same volume of buffer and again centrifuged at 20,000×g. The supernatant is decanted and the pellet is frozen at −20° C. overnight. The pellet is then thawed and rehomogenized in 25 volume (original wt/vol) of buffer and the procedure is carried out twice. The pellet is finally resuspended in 50 volumes (w/vol of 0.05 M Tris HCl buffer (pH 7.4 at […]).
Incubations contain […] of tissue homogenate, […] of radioligand 0.5 nM (^3H-RO15-1788 [^3H-Flumazenil] specific activity 80 Ci/mmol), drug or blocker and buffer to a total volume of […]. Incubations are carried for 30 min at 4° C. then are rapidly filtered through GFB filters to separate free and bound ligand. Filters are washed twice with fresh 0.05 M Tris HCl buffer (pH 7.4 at 4° C.) and counted in a liquid scintillation counter. […] diazepam is added to some tubes to determine nonspecific binding. Data are collected in triplicate determinations, averaged and % inhibition of total specific binding is calculated. Total Specific Binding=Total−Nonspecific. In some cases, the amounts of unlabeled drugs is varied and total displacement curves of binding are carried out.

Each structure is given as a SMILES string.

`O=C(Nc1ccc(CNC2CC2)cc1)c1c[nH]c2c1C(=O)CCC2` [Compound 5, N-[4-(Cyclopropylaminomethyl)phenyl]-4-oxo-4,5,6,7-tetrahydro-1H-indole-3-carboxamide] gave a melting point of 171 to 173 °C. Also, the Ki on GABAa receptor was determined as 9 nM.

Usually melting point stands for the temperature, or range, at which the solid turns liquid. One may read the Ki as the equilibrium dissociation constant of an inhibitor or competing ligand from its target.
